The source of these data is patent publication US20120121708A1 (National Taiwan University, priority 2010, published 2012).

SMILES strings stand for the structures.

Data set [1] is described as follows: dissolution rate analysis by dissolution tester (Weibull model). Type of data set: physicochemical. As to the method:
The microparticle morphology and size are detected by the scanning electron microscopy (SEM). The particle size distribution (PSD) is analyzed by the image analysis software “Image J”. The crystal properties are analyzed by the X-Ray diffractometer. The changes in the crystal form are detected by the differential scanning calorimetry (DSC). […] The analyses of the dissolution rate are performed by the dissolution tester.

For data set [2] the following is noted: background statement; cited from earlier work.

`CC(=O)Nc1nnc(S(N)(=O)=O)s1` [acetazolamide bulk drug, acetazolamide] showed a dissolution rate coefficient in data set [1] of 0.0626 min⁻¹. Also, in data set [2], the “particle size of commercial acetazolamide drug” value is “about 20 μm”.
